Source: patent publication US20250161404A1, “METHODS AND COMPOSITIONS FOR THE CONTROL OF INFLAMMATION IN SKIN DISEASE” (VANDERBILT UNIVERSITY, priority 2023, published 2025)
≈ marks a conversion by molar mass, not a printed value. Each block holds one compound with its values, some of them ahead of it. Where a SMILES comes first, the peptide text is derived from it. Bridges are numbered along the chain shown (N, C = ends).

Key:
[1] = Solubility of the peptide; format: physicochemical; conditions: cSN50: depending on the method of synthesis and purification; read-out: soluble at levels of
Description: cSN50.1 is a cyclized peptide having the sequence of cSN50 with the exception that the tyrosine at position 18 of cSN50, adjacent to the first cysteine, has been removed. Methods of making and using cSN50 are described, for example, in U.S. Pat. Nos. 7,553,929 and 6,495,518. The amino acid sequence of cSN50.1 is […] (SEQ ID NO: 2). The tyrosine at position 18 was removed from the sequence of cSN50 to increase solubility. cSN50 is soluble at levels of ranging from 2.0 mg/mL to 40 mg/mL depending on the method of synthesis and purification whereas cSN50.1 is soluble at levels of at least 100 mg/ml. Any mimetics, derivatives, or homologs of cSN50.1 may be used in the compositions, methods, and kits disclosed herein. cSN50.1 is also encompassed by SEQ ID NO: 3, SEQ ID NO: 4 and SEQ ID NO: 5. Additional examples of NTMs include fragment-designed and synthesized peptides in which cargo is incorporated as two, rather than one, modules or cargos derived from intracellular proteins other than NFκB 1. Such additional examples include the sequences of SEQ ID NO: 6, SEQ ID NO: 7, SEQ ID NO: 8, and SEQ ID NO: 9.

[2] = long-term NTCI treatment; cited from earlier work
[3] = Cell viability of cultured human keratinocytes; format: cell-based; conditions: in all conditions, 48 hours after TNF-α/IL-17 challenge
[4] = biological target: Importin beta (Homo sapiens, UniProt Q14974); experiment: Binding studies (Table 3 comment)
[5] = biological target: Imp beta (Homo sapiens, UniProt Q14974); experiment: Cell culture and preclinical studies (Table 3 comment)
Imp beta, sequence (Q14974 whole entry): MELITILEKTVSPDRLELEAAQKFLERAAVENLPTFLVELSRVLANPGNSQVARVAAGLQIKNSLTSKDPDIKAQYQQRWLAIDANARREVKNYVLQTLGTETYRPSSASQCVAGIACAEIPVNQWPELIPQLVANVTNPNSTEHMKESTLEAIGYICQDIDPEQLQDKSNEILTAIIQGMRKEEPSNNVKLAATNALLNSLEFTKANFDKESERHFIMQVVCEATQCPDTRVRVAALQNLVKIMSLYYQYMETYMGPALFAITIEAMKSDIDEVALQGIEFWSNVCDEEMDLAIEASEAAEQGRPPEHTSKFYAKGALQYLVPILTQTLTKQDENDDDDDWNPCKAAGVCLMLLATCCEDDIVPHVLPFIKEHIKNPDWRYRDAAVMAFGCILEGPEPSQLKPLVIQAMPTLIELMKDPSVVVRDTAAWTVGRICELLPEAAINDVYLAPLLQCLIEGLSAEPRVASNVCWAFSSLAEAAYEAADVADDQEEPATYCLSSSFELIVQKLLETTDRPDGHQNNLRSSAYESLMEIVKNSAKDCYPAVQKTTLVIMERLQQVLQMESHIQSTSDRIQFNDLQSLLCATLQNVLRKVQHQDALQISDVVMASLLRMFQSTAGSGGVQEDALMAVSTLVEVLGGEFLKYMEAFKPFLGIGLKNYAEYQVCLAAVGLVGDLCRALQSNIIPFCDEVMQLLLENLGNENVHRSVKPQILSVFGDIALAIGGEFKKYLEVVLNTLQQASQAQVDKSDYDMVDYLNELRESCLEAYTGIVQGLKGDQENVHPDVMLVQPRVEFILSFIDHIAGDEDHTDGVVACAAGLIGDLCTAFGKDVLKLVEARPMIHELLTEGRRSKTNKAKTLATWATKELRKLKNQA

Importin beta, sequence (Q14974 whole entry): as above

solubility [1]: 2 to 40 mg/mL (≈ 0.635 to 12.7 mM)
Compound: CSCC[C@@H]1NC(=O)[C@H](CC(C)C)NC(=O)[C@H](CCCCN)NC(=O)[C@H](CCC(N)=O)NC(=O)[C@H](CCCNC(=N)N)NC(=O)[C@H](CCCCN)NC(=O)[C@H](CCCNC(=N)N)NC(=O)[C@H](CCC(N)=O)NC(=O)[C@H](C(C)C)NC(=O)[C@H](Cc2ccc(O)cc2)NC(=O)[C@@H](NC(=O)[C@@H]2CCCN2C(=O)[C@H](C)NC(=O)[C@H](CC(C)C)NC(=O)[C@H](CC(C)C)NC(=O)[C@H](C)NC(=O)[C@H](CC(C)C)NC(=O)[C@H](CC(C)C)NC(=O)[C@@H](NC(=O)[C@H](C)NC(=O)[C@@H]2CCCN2C(=O)[C@H](CC(C)C)NC(=O)[C@H](CC(C)C)NC(=O)[C@H](C)NC(=O)[C@@H](NC(=O)[C@H](C)NC(=O)[C@H](C)N)C(C)C)C(C)C)CSSC[C@@H](C(=O)O)NC(=O)[C@@H]2CCCN2C1=O [cSN50] (H-AAVALLPAVLLALLAPCYVQRKRQKLMPC-OH; disulfide 17-29; N-terminus and C-terminus assumed)

Compound: CSCC[C@@H]1NC(=O)[C@H](CC(C)C)NC(=O)[C@H](CCCCN)NC(=O)[C@H](CCC(N)=O)NC(=O)[C@H](CCCNC(=N)N)NC(=O)[C@H](CCCCN)NC(=O)[C@H](CCCNC(=N)N)NC(=O)[C@H](CCC(N)=O)NC(=O)[C@H](C(C)C)NC(=O)[C@@H](NC(=O)[C@@H]2CCCN2C(=O)[C@H](C)NC(=O)[C@H](CC(C)C)NC(=O)[C@H](CC(C)C)NC(=O)[C@H](C)NC(=O)[C@H](CC(C)C)NC(=O)[C@H](CC(C)C)NC(=O)[C@@H](NC(=O)[C@H](C)NC(=O)[C@@H]2CCCN2C(=O)[C@H](CC(C)C)NC(=O)[C@H](CC(C)C)NC(=O)[C@H](C)NC(=O)[C@@H](NC(=O)[C@H](C)NC(=O)[C@H](C)N)C(C)C)C(C)C)CSSC[C@@H](C(=O)O)NC(=O)[C@@H]2CCCN2C1=O [cSN50.1] (H-AAVALLPAVLLALLAPCVQRKRQKLMPC-OH; disulfide 17-28; N-terminus and C-terminus assumed)
apparent toxicity [2]: lack of apparent toxicity | viability at 48 h [3]: > 80% | solubility [1]: ≥ 100 mg/mL

Compound: AAVALLPAVLLALLAPVQRDEQKLMP (Description of sequence: Peptide, name of peptide: SM12)
Comments: importin selectivity [4]: Importin beta-

Compound: AAVALLPAVLLALLAPCVQRDEQKLMPC [cSN50.1β]
Comments: importin selectivity [5]: Imp beta-selective
